Here are results for three compounds from patent publication US10988507B2, “Immunomodulators” (Bristol-Myers Squibb Company, priority 2016, dated 2021).

The IC50 is the point on the concentration scale where inhibition reaches its midpoint.

Data set [1] has as its target PD-1-Ig binding to PD-L1-TVMV-His (PD-L1-His) (Homo sapiens (Human), UniProt Q9NZQ7). Put plainly: PD-1/PD-L1 Homogenous Time-Resolved Fluorescence (HTRF) binding assay. As to conditions: PD-1-Ig (20 nM)/PD-L1-His (10 nM) binding assay. The source says: The ability of the macrocyclic peptides of the present disclosure to bind to PD-L1 was investigated using a PD-1/PD-L1 Homogenous Time-Resolved Fluorescence (HTRF) binding assay.
Homogenous Time-Resolved Fluorescence (HTRF) Assays of Binding of Soluble PD-1 to Soluble PD-L1. Soluble PD-1 and soluble PD-L1 refers to proteins with carboxyl-end truncations that remove the transmembrane-spanning regions and are fused to heterologous sequences, specifically the Fc portion of the human immunoglobuling G sequence (Ig) or the hexahistidine epitope tag (His). All binding studies were performed in an HTRF assay buffer consisting of dPBS supplemented with 0.1% (w/v) bovine serum albumin and 0.05% (v/v) Tween-20. For the PD-1-Ig/PD-L1-His binding assay, inhibitors were pre-incubated with PD-L1-His (10 nM final) for 15 m in 4 μl of assay buffer, followed by addition of PD-1-Ig (20 nM final) in 1 μl of assay buffer and further incubation for 15 m. PD-L1 fusion proteins from either human, cynomologous macaques, mouse, or other species were used. HTRF detection was achieved using europium crypate-labeled anti-Ig monoclonal antibody (1 nM final) and allophycocyanin (APC) labeled anti-His monoclonal antibody (20 nM final). Antibodies were diluted in HTRF detection buffer and 5 μl was dispensed on top of binding reaction. […]
A general note: Time-resolved FRET reads energy transfer from a long-lived donor to a nearby acceptor.

For data set [2] the following is noted: oral administration, extensive first-pass metabolism in the liver; cited from earlier work.

Structures are written as SMILES. Where a SMILES comes first, the peptide text is derived from it. Bridges are numbered along the chain shown (N, C = ends). [ ]: non-standard residue; d: D form. The star is where a group is joined. Palmitoyl = CCCCCCCCCCCCCCCC(=O)*; Hyp = O=C(O)[C@@H]1C[C@@H](O)CN1; Myristoyl = CCCCCCCCCCCCCC(=O)*; NMeNle = CCCC[C@H](NC)C(=O)O; NMeA = CN[C@@H](C)C(=O)O

Chain of PD-1-Ig binding to PD-L1-TVMV-His (PD-L1-His) (Q9NZQ7 other isoform, or with tags, fused parts or gaps): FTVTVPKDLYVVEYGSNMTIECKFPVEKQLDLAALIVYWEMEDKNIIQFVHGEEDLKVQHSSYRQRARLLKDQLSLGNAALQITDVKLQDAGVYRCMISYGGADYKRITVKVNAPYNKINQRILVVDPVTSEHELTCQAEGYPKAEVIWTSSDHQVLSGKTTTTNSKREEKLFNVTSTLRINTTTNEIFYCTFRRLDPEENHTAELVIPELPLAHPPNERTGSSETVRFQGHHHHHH

As to `CCCCCCCCCCCCCCCC(=O)NCCCC[C@@H]1NC(=O)[C@H](CCCC)N(C)C(=O)[C@H](CCCC)N(C)C(=O)[C@H](Cc2c[nH]c3ccccc23)NC(=O)[C@H](CO)NC(=O)[C@H](Cc2c[nH]c3ccccc23)NC(=O)[C@@H]2C[C@@H](O)CN2C(=O)[C@H](CC(C)C)NC(=O)[C@H](Cc2cnc[nH]2)NC(=O)[C@@H]2CCCN2C(=O)[C@H](CC(=O)O)NC(=O)[C@H](C)N(C)C(=O)[C@H](Cc2ccc(O)cc2)NC(=O)CSC[C@@H](C(=O)NCC(N)=O)NC1=O` [Example 11058] ({CH2CO}-Y[NMeA]DPHL[Hyp]WSW[NMeNle][NMeNle]K(Palmitoyl)CG-NH2; thioether N-14), the IC50 in data set [1] is 1930 nM.

In data set [1], `CCCCCCCCCCCCCC(=O)NCCCC[C@@H]1NC(=O)[C@H](CCCC)N(C)C(=O)[C@H](CCCC)N(C)C(=O)[C@H](Cc2c[nH]c3ccccc23)NC(=O)[C@H](CO)NC(=O)[C@H](Cc2c[nH]c3ccccc23)NC(=O)[C@@H]2C[C@@H](O)CN2C(=O)[C@H](CC(C)C)NC(=O)[C@H](Cc2cnc[nH]2)NC(=O)[C@@H]2CCCN2C(=O)[C@H](CC(=O)O)NC(=O)[C@H](C)N(C)C(=O)[C@H](Cc2ccc(O)cc2)NC(=O)CSC[C@@H](C(=O)NCC(N)=O)NC1=O` [Example 11059] ({CH2CO}-Y[NMeA]DPHL[Hyp]WSW[NMeNle][NMeNle]K(Myristoyl)CG-NH2; thioether N-14) registered a half-maximal inhibitory concentration (IC50) of 690 nM. `CCCC1O[C@@H]2C[C@H]3[C@@H]4CCC5=CC(=O)C=C[C@]5(C)[C@H]4[C@@H](O)C[C@]3(C)[C@]2(C(=O)CO)O1` (stereo partly drawn) [budesonide]: the bioavailability result in data set [2] is reported as “about 10%”.
